Drawing on patent publication US7595320B2, “Hydrazinocarbonyl-thieno[2,3-C]pyrazoles, process for preparing them, compositions containing them and use thereof” (Aventis Pharma S.A., priority 2005, dated 2009), this text covers IC50 for 18 molecules.

Structures can show the parent of a compound that is named as a salt.

Common to all, as to assay type: biochemical
For one assay, the target named is T1, CDK2/cycline E (Homo sapiens, UniProt P24941).
T1 construct: made in house; host or cells: Sf21 insect cells (baculovirus coinfection)
The assay is described as follows: CDK2/cyclineE Flashplate test in 96-well format. The settings on record: CDK2/cycline E complex, 1 μM ATP. The gist of the method:
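Recombinant human CDK2/cyclin E (His-tagged cyclin E, coexpressed in Sf21 cells), 20 nM, phosphorylates biotinylated pRb peptide (10 μM) with 1 μM ATP plus [γ-33P]ATP in HEPES pH 7.5, MgCl2, DTT at 30 °C. Inhibitors tested at 10 μM down to 0.014 μM; 33P incorporation read by scintillation on streptavidin plates.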

Another assay concerns the target T2, Aurora2 (Homo sapiens, UniProt O14965).
T2 construct: Aurora2: whole recombinant protein comprising an N-terminal histidine tail; His tag (N); made in house; host or cells: E. coli
T2 sequence (O14965 1-403): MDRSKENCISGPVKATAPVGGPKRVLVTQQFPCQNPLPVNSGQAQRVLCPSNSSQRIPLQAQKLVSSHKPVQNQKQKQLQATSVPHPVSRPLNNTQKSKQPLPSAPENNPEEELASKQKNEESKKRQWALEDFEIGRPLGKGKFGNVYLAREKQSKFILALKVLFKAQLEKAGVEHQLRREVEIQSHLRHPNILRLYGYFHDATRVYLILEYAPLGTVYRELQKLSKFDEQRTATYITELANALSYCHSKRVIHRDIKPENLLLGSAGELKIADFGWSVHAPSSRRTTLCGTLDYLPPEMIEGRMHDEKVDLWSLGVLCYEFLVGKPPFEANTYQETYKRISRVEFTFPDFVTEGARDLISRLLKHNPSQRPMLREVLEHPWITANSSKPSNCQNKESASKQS
The assay is described as follows: Aurora2 enzymatic test, NuMA phosphorylation with [33P]ATP, Flashplate. The conditions noted are these: whole recombinant protein, 1 μM ATP. The gist of the method:
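Full-length His-tagged Aurora2 (E. coli, >82% pure) at 10 nM phosphorylated 500 nM His-NuMA fragment on Ni-chelate Flashplates. Conditions were pH 7.5 Tris buffer with 10 mM MgCl2, 1 μM ATP plus [33P]ATP, 30 min at 37 °C.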

In another assay the target is T3, Aurora1 (Homo sapiens, UniProt Q96GD4).
T3 construct: His tag (N); made in house
The assay is described as follows: Aurora1 enzymatic test, NuMA phosphorylation with [33P]ATP, Flashplate. The settings on record: Aurora-B/INCENP-C3 recombinant complex, 1 μM ATP. The gist of the method:
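Recombinant His-tagged Aurora-B/INCENP-C3 complex (10 nM) phosphorylates 500 nM His-NuMA fragment with 1 µM ATP plus [33P]ATP, 30 minutes at 37° C in Tris pH 7.5 with 5 mM MgCl2, on nickel-chelate Flashplates. Incorporated 33P counted; percent inhibition versus enzyme control after no-enzyme background subtraction.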

The next assay concerns the target T4, Tie2 (Homo sapiens, UniProt Q02763).
T4 construct: amino acids of the intracellular domain 776-1124; made in house; host or cells: baculovirus expression (pFastBacGT vector)
The assay can be described thus: Tie2 kinase test, phosphorylation of PLC with GST-Tie2. The settings on record: GST-Tie2 intracellular domain 776-1124.

T3 sequence (Q96GD4 whole entry, species assumed): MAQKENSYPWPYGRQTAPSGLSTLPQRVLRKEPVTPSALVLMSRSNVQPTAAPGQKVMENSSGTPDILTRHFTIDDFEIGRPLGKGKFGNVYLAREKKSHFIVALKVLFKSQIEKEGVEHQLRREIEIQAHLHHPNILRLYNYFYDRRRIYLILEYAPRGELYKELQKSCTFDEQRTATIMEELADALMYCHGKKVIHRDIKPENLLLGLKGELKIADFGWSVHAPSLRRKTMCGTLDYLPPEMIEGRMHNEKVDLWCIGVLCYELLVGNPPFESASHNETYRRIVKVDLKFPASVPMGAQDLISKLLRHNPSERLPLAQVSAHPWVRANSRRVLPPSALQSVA
T3 sequence (Q9NQS7 835-903 partner limits assumed, species assumed): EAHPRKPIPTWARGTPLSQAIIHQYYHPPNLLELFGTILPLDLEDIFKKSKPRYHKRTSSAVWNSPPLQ
T4 sequence (Q02763 776-1124): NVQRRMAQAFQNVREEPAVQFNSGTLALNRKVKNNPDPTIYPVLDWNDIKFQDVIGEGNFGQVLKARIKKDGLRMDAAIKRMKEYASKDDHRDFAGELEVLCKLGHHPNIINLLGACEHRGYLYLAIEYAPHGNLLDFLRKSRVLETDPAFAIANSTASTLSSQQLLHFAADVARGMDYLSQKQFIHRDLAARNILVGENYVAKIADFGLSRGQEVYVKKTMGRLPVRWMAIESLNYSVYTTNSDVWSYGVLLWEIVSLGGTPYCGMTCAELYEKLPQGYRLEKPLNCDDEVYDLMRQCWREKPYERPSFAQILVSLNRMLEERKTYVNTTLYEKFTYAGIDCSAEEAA

In the case of `COCCN(NC(=O)c1cc2c(NC(=O)c3ccc(N4CCN(C)CC4)cc3)n[nH]c2s1)c1ccc(F)cc1` [Example 38, N-{5-[N′-(4-fluorophenyl)-N′-(2-methoxyethyl)-hydrazinocarbonyl]-1H-thieno[2,3-c]pyrazol-3-yl}-4-(4-methylpiperazin-1-yl)-benzamide], the half-inhibitory concentration (IC50) against CDK2/cycline E came out at 214 nM; at Aurora2 it was 4 nM; on Aurora1, 21 nM; at Tie2, 58 nM.

For `CN(NC(=O)c1cc2c(NC(=O)c3ccc(OCCN4CCOCC4)cc3)n[nH]c2s1)c1ccccc1` [Example 46, N-[5-(N′-methyl-N′-phenylhydrazinocarbonyl)-1H-thieno[2,3-c]pyrazol-3-yl]-4-(2-morpholin-4-ylethoxy)benzamide], the IC50 against CDK2/cycline E is 100 nM; at Aurora2 it was 6 nM; on Aurora1, 12 nM; at Tie2, 275 nM.

For `CN1CCN(c2ccc(C(=O)Nc3n[nH]c4sc(C(=O)NN(Cc5ccccc5)c5ccccc5)cc34)cc2)CC1` [Example 34, N-[5-(N′-benzyl-N′-phenylhydrazinocarbonyl)-1H-thieno[2,3-c]pyrazol-3-yl]-4-(4-methylpiperazin-1-yl)benzamide], the IC50 was 1580 nM against CDK2/cycline E, 5 nM on Aurora2, 13 nM on Aurora1 and 38 nM against Tie2.

`CN(NC(=O)c1cc2c(NC(=O)c3cccc(CN4CCOCC4)c3)n[nH]c2s1)c1ccccc1` [Example 22a, N-[5-(N′-methyl-N′-phenylhydrazinocarbonyl)-1H-thieno[2,3-c]pyrazol-3-yl]-3-morpholin-4-ylmethylbenzamide]: the half-maximal inhibitory concentration (IC50) against CDK2/cycline E turned out to be 717 nM; at Aurora2, 81 nM; at Aurora1, 147 nM; on Tie2 it was 2210 nM.

On to `CN(NC(=O)c1cc2c(NC(=O)c3ccc(CN4CCCOCC4)cc3)n[nH]c2s1)c1ccc(Cl)cc1` [Example 21b, N-{5-[N′-(4-chlorophenyl)-N′-methylhydrazinocarbonyl]-1H-thieno[2,3-c]pyrazol-3-yl}-4-perhydro-1,4-oxazepin-4-ylmethylbenzamide], for which the IC50 at CDK2/cycline E was found to be 82 nM; on Aurora2, 34 nM; on Aurora1, 160 nM; against Tie2, 301 nM.

For `CC(C)CN(NC(=O)c1cc2c(NC(=O)c3ccc(N4CCN(C)CC4)cc3)n[nH]c2s1)c1ccc(F)cc1` [Example 42, N-{5-[N′-(4-fluorophenyl)-N′-isobutylhydrazinocarbonyl]-1H-thieno[2,3-c]pyrazol-3-yl}-4-(4-methylpiperazin-1-yl)benzamide], the IC50 on CDK2/cycline E came out at 1120 nM; on Aurora2, 6 nM; on Aurora1 it was 24 nM; at Tie2 it was 61 nM.

For `CN(NC(=O)c1cc2c(NC(=O)c3cccc(CN4CCOCC4)c3)n[nH]c2s1)c1ccc(Cl)cc1` [Example 22b, N-{5-[N′-(4-chlorophenyl)-N′-methylhydrazinocarbonyl]-1H-thieno[2,3-c]pyrazol-3-yl}-3-morpholin-4-ylmethylbenzamide], the IC50 against CDK2/cycline E was 703 nM; on Aurora2, 762 nM; at Aurora1, 956 nM; against Tie2, 3190 nM.

Consider `CN1CCCN(Cc2ccc(C(=O)Nc3n[nH]c4sc(C(=O)NN(C)c5ccc(Cl)cc5)cc34)cc2)CC1` [Example 12b, 4-(4-methylperhydro-1,4-diazepin-1-ylmethyl)-N-[5-(N′-(4-chlorophenyl)-N′-methylhydrazinocarbonyl)-1H-thieno[2,3-c]pyrazol-3-yl]benzamide], for which the concentration for half-maximal inhibition (IC50) against CDK2/cycline E came out at 40 nM; at Aurora2 it was 68 nM; at Aurora1, 151 nM; at Tie2, 218 nM.

As for `CN1CCN(c2ccc(C(=O)Nc3n[nH]c4sc(C(=O)NN(C)c5ccc(Cl)cc5)cc34)cc2)CC1` [Example 28, N-{5-[N′-(4-chlorophenyl)-N′-methylhydrazinocarbonyl]-1H-thieno[2,3-c]pyrazol-3-yl}-4-(4-methylpiperazin-1-yl)benzamide], the IC50 was determined as 132 nM at CDK2/cycline E, 2 nM on Aurora2, 6 nM at Aurora1 and 106 nM against Tie2.

On to `CC(C)N(Cc1ccc(C(=O)Nc2n[nH]c3sc(C(=O)NN(C)c4ccccc4)cc23)cc1)C(C)C` [Example 25, 4-[(diisopropylamino)methyl]-N-[5-(N′-methyl-N′-phenylhydrazinocarbonyl)-1H-thieno[2,3-c]pyrazol-3-yl]benzamide trifluoroacetate], for which the IC50 was 317 nM against CDK2/cycline E, 25 nM at Aurora2, 249 nM on Aurora1 and 328 nM on Tie2.

As for `CN1CCN(Cc2ccc(C(=O)Nc3n[nH]c4sc(C(=O)NN(C)c5ccccc5)cc34)cc2)CC1` [Example 10, N-[5-(N′-methyl-N′-phenylhydrazinocarbonyl)-1H-thieno[2,3-c]pyrazol-3-yl]-4-(4-methylpiperazin-1-ylmethyl)benzamide], the IC50 at CDK2/cycline E was found to be 92 nM; on Aurora2, 46 nM; at Aurora1, 102 nM; against Tie2, 367 nM.

As for `CCN(CC)Cc1ccc(C(=O)Nc2n[nH]c3sc(C(=O)NN(C)c4ccccc4)cc23)cc1` [Example 15a, 4-diethylaminomethyl-N-[5-(N′-methyl-N′-phenylhydrazinocarbonyl)-1H-thieno[2,3-c]pyrazol-3-yl]benzamide trifluoroacetate], the half-inhibitory concentration (IC50) against CDK2/cycline E is 210 nM; at Aurora2, 12 nM; at Aurora1, 114 nM; against Tie2, 623 nM.

Regarding `COc1ccc(C(=O)Nc2n[nH]c3sc(C(=O)NNc4ccccc4F)cc23)cc1` [Example 6, N-{5-[N′-(2-fluorophenyl)hydrazinocarbonyl]-1H-thieno[2,3-c]pyrazol-3-yl}-4-methoxybenzamide], the IC50 against CDK2/cycline E was 579 nM; at Aurora2, 20 nM; on Aurora1, 14 nM; against Tie2, 230 nM.

Regarding `COc1ccc(C(=O)Nc2n[nH]c3sc(C(=O)NNC4CCCCC4)cc23)cc1` [Example 3, N-[5-(N′-cyclohexylhydrazinocarbonyl)-1H-thieno-[2,3-c]pyrazol-3-yl]-4-methoxybenzamide], the half-maximal inhibitory concentration (IC50) on CDK2/cycline E came to 471 nM; on Aurora2, 45 nM; on Aurora1, 31 nM; against Tie2, 192 nM.

Consider `CN(NC(=O)c1cc2c(NC(=O)c3ccc(CN4CCCC4)cc3)n[nH]c2s1)c1ccccc1` [Example 18a, N-[5-(N′-methyl-N′-phenylhydrazinocarbonyl)-1H-thieno[2,3-c]pyrazol-3-yl]-4-pyrrolidin-1-ylmethylbenzamide], for which the concentration for half-maximal inhibition (IC50) was determined as 181 nM against CDK2/cycline E, 14 nM on Aurora2, 122 nM at Aurora1 and 624 nM at Tie2.

In the case of `CN(NC(=O)c1cc2c(NC(=O)c3ccc(CN4CCC4)cc3)n[nH]c2s1)c1ccccc1` [Example 19, 4-azetidin-1-ylmethyl-N-[5-(N′-methyl-N′-phenylhydrazinocarbonyl)-1H-thieno[2,3-c]pyrazol-3-yl]benzamide], the half-maximal inhibitory concentration (IC50) at CDK2/cycline E turned out to be 239 nM; at Aurora2, 26 nM; at Aurora1 it was 304 nM; at Tie2, 888 nM.

With `CC1CN(Cc2ccc(C(=O)Nc3n[nH]c4sc(C(=O)NN(C)c5ccc(Cl)cc5)cc34)cc2)CCN1` (stereo not drawn) [Example 14b, N-{5-[N′-(4-chlorophenyl)-N′-methylhydrazinocarbonyl]-1H-thieno[2,3-c]pyrazol-3-yl}-4-(3-methylpiperazin-1-ylmethyl)benzamide], the half-maximal inhibitory concentration (IC50) worked out at 46 nM against CDK2/cycline E, 44 nM on Aurora2, 148 nM on Aurora1 and 425 nM at Tie2.

On to `CN(NC(=O)c1cc2c(NC(=O)c3ccc(CN4CCCCC4)cc3)n[nH]c2s1)c1ccc(Cl)cc1` [Example 17b, N-[5-(N′-(4-chlorophenyl)-N′-methylhydrazinocarbonyl)-1H-thieno[2,3-c]-pyrazol-3-yl]-4-piperidin-1-ylmethylbenzamide], for which the half-maximal inhibitory concentration (IC50) on CDK2/cycline E was 93 nM; at Aurora2 it was 35 nM; on Aurora1, 335 nM; against Tie2, 230 nM.

As a reminder, the IC50 is the midpoint of a concentration-inhibition curve.
